Results: ChEMBL document CHEMBL1201862, “PubChem BioAssay data set” (2004)
Activity calls are given as the source filed them.

How the values were obtained:
cells [1] = assay type: functional, cell-based
cells [2] = assay type: functional, cell-based; remark: listed apart in the source
[3] = biological target: T1, Trace amine-associated receptor 1 (Homo sapiens, UniProt Q96RJ0); test: Counterscreen for agonists of the human trace amine associated receptor 1 (hTAAR1): Fluorescence-based cell-based high throughput dose response assay to identify hTAAR1 agonist that also desensitize TAAR1 receptor response.; assay type: functional
T1 sequence (Q96RJ0 whole entry): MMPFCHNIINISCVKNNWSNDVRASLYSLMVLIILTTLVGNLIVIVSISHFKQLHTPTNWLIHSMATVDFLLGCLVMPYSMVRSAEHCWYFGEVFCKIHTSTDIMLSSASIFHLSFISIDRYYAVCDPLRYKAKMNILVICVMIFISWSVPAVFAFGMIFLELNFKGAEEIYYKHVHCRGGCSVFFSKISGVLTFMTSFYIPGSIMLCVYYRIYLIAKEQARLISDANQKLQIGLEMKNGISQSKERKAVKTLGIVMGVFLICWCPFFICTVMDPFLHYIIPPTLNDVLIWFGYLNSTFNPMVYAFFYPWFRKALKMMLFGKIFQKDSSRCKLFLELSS

[4] = biological target: T1, Trace amine-associated receptor 1; test: Fluorescence-based cell-based high throughput dose response assay to identify agonists of the human trace amine associated receptor 1 (TAAR1).; assay type: functional
[5] = biological target: T2, Corticotropin-releasing factor receptor 2/Corticotropin-releasing factor-binding protein (Homo sapiens, UniProt P24387+Q13324); test: Dose Response confirmation of uHTS hits for small molecule antagonists of the CRF-binding protein and CRF-R2 receptor complex.; assay type: functional; conditions: read-out: IC50_Mean
T2 sequence (Q13324 whole entry): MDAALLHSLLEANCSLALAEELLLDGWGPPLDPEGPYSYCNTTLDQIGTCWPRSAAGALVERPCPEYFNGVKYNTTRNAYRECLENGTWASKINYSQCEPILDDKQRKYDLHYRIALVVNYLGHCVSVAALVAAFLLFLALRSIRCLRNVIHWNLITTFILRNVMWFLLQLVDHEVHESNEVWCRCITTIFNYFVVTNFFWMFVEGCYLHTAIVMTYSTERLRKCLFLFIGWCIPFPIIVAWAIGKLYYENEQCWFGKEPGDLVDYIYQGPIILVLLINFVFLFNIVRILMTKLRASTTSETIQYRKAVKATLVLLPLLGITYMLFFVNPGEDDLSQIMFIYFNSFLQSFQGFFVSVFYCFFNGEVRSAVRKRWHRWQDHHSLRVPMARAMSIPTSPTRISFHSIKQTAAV
T2 sequence (P24387 whole entry): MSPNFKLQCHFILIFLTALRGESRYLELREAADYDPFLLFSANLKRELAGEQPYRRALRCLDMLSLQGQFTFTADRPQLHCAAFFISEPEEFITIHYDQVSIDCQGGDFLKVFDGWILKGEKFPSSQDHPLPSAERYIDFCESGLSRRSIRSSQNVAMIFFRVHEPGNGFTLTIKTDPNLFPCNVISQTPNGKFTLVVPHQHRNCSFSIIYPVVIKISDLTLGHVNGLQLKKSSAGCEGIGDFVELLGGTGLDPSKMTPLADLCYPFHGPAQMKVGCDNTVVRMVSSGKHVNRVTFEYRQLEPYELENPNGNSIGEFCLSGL

[6] = biological target: T3, Nuclear receptor subfamily 0 group B member 1 (Homo sapiens, UniProt P51843); assay type: functional, cell-based;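 further: HEK293T cells transfected with SF-1 and DAX-1 plus StAR promoter luciferase reporter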
T3 sequence (P51843 whole entry): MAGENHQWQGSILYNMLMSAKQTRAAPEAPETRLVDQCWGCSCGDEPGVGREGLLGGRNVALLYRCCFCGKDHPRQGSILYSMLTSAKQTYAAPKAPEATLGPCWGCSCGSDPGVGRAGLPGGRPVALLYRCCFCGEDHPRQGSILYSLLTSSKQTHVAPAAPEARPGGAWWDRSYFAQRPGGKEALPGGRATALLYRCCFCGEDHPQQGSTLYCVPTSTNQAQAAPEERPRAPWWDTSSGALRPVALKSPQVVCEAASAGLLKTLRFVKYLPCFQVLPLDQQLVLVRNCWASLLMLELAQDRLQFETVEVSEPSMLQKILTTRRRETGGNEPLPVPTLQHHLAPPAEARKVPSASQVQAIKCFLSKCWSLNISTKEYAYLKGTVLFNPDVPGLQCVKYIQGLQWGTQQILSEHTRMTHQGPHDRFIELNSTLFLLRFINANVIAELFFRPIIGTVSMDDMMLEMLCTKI

cells [7] = assay type: functional, cell-based; remark: listed apart in the source
[8] = biological target: T2, Corticotropin-releasing factor receptor 2/Corticotropin-releasing factor-binding protein; test: activators of CRF receptor 2 with binding protein – uHTS hits, confirmation (AID 602473); assay type: functional; conditions: read-out: EC50_Mean
fMet-Leu-Phe receptor = fMet-Leu-Phe receptor (Homo sapiens, UniProt P21462); test: FPR ligands, dose response (AID 519); assay type: functional
Albumin = Albumin (Bos taurus, UniProt P02769); test: Counterscreen for inhibitors of T-cell receptor (TCR)-CD3 interaction: Fluorescence-based biochemical high throughput dose response assay to identify inhibitors of T-cell receptor (TCR)-CD3 interaction using a TAMRA-labeled BSA probe.; assay type: functional
NS3 = NS3 (Hepatitis C virus, UniProt A3EZJ3); test: PubChem AID 2173; parameters: species or system Hepacivirus hominis
[9] = biological target: Induced myeloid leukemia cell differentiation protein Mcl-1 (Homo sapiens, UniProt Q07820); assay type: functional
[10] = miR-122 activators in hepatoma reporter cells, dose response, cell-based, Huh7 psiCHECK-miR122, Renilla luciferase, cherry-picked (AID 651956); assay type: functional;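 further: huh7 hepatoma cells stably carrying a psiCHECK-2 miR-122 sensor plasmid; renilla luciferase signal reporting endogenous miR-122 activity after 48 h compound exposure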
[11] = HepG2 cell cytotoxicity, dose response, cytotoxicity control for Shn3 inhibitor project, CellTiter-Glo, cherry-picked (AID 624134); assay type: functional, cell-based
[12] = HEK293T cytotoxicity, dose response, cytotoxicity control for miR-122 modulator project, cell-based, activator set, cherry-pick (AID 720690); assay type: functional;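 further: HEK293T human cells scored for general mammalian cytotoxicity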
[13] = Shn3 3'UTR reporter inhibitors, dose response, cell-based, Clone20 osteoblasts, firefly luciferase, cherry-picked (AID 624132); assay type: functional;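 further: firefly luciferase luminescence from reporter carrying the Shn3 3'UTR in osteoblasts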
HEK293 = test: inhibitors of LMP1-driven NF-kB reporter, dose response, cell-based, HEK293, luciferase, cherry-pick (AID 588343); assay type: functional; conditions: Homo sapiens
[14] = inhibitors of PGC1a acetylation in cells, dose response, cell-based, cherry-picked samples (AID 720514); assay type: functional;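 further: potency may reflect raised or lowered acetylation signal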
[15] = control 3'UTR Renilla luciferase suppression, dose response, counter-screen for Shn3 inhibitor project, cell-based, Clone20-Shn3RL, cherry-picked (AID 624133); assay type: functional
[16] = HEK293T cytotoxicity, dose response, cytotoxicity control for miR-122 modulator project, cell-based, inhibitor set, cherry-pick, set 2 (AID 720697); assay type: functional
[17] = ADAM10 inhibitors, peptide cleavage, dose response, biochemical, QFRET (AID 743254);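 further: ADAM10 enzyme with the DM2 quenched FRET peptide as substrate; EDANS fluorescence gain as the protease cuts the substrate; inhibitor potency against ADAM10 proteolytic activity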
[18] = biological target: Disintegrin and metalloproteinase domain-containing protein 17 (Homo sapiens, UniProt P78536); test: ADAM17 protease inhibitors, dose response, counter-screen for ADAM10 exosite inhibitor project, biochemical, quenched FRET substrate (AID 743253)
Paired box protein Pax-8 = Paired box protein Pax-8 (Homo sapiens, UniProt Q06710); test: inhibitors of PAX8-driven TPO luciferase reporter, dose response, RMG-I cells, cherry-pick (AID 687027); assay type: functional, cell-based;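 further: luciferase reporter driven by Pax8 target thyroperoxidase promoter measured by SteadyGlo luminescence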
Chain of Paired box protein Pax-8 (Q06710 whole entry): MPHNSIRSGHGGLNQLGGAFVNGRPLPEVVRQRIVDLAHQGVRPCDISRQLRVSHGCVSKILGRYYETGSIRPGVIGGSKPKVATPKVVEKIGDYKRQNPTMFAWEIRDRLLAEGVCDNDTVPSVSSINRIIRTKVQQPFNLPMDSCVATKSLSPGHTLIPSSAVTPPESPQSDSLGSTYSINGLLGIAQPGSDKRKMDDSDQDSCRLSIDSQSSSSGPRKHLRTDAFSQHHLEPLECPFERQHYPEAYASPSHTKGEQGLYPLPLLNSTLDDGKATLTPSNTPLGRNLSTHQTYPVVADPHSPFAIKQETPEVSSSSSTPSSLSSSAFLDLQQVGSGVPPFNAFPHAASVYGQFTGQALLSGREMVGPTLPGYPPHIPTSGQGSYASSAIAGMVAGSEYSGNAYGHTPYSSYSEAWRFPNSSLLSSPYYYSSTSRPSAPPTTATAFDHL

Chain of Disintegrin and metalloproteinase domain-containing protein 17 (P78536 whole entry, the tested form may be a part): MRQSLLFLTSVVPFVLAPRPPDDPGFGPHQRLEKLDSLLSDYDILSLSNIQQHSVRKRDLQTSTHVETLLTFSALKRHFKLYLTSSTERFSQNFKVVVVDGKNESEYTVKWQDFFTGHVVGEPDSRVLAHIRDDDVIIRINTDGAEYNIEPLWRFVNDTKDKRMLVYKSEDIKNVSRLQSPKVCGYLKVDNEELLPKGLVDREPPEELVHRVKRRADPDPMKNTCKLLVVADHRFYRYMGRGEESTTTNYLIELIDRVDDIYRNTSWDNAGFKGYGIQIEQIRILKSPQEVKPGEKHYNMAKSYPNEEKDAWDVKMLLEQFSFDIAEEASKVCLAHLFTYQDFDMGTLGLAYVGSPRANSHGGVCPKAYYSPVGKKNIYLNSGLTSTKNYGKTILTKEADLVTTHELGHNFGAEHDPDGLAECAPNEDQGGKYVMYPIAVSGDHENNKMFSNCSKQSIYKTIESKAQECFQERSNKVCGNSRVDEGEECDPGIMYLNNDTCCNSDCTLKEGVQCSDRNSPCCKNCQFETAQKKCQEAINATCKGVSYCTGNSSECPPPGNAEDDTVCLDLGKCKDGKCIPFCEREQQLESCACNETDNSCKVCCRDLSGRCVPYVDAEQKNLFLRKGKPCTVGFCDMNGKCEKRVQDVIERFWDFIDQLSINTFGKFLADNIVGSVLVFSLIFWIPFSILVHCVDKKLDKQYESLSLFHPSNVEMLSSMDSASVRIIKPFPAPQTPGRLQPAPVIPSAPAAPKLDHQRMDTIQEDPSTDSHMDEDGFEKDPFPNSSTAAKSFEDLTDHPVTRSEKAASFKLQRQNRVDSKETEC
Chain of Albumin (P02769 whole entry): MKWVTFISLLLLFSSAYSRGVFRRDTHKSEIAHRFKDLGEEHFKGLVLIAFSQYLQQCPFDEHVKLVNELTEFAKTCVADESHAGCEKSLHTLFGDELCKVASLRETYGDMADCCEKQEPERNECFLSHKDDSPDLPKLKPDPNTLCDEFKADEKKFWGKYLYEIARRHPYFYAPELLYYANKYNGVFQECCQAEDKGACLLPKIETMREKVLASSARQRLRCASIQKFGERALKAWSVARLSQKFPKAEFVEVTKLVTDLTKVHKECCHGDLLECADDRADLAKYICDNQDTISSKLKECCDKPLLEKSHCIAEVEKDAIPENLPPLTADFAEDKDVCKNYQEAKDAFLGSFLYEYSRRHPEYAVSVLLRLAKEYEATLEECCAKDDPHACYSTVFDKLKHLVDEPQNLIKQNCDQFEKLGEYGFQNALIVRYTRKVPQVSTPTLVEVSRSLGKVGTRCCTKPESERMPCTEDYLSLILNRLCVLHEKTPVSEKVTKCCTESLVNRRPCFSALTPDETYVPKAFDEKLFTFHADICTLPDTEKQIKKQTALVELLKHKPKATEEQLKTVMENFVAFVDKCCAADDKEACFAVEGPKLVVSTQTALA
Chain of Induced myeloid leukemia cell differentiation protein Mcl-1 (Q07820 whole entry): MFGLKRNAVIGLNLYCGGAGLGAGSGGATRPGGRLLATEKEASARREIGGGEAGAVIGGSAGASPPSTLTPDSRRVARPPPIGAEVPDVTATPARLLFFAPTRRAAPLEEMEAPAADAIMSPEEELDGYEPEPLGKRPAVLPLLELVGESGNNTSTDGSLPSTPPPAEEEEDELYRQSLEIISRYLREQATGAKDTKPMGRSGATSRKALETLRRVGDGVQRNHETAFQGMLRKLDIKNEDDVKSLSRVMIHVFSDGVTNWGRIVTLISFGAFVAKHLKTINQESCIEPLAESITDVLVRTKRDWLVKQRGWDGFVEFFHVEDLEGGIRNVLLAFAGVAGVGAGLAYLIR
Chain of NS3 (A3EZJ3 whole entry): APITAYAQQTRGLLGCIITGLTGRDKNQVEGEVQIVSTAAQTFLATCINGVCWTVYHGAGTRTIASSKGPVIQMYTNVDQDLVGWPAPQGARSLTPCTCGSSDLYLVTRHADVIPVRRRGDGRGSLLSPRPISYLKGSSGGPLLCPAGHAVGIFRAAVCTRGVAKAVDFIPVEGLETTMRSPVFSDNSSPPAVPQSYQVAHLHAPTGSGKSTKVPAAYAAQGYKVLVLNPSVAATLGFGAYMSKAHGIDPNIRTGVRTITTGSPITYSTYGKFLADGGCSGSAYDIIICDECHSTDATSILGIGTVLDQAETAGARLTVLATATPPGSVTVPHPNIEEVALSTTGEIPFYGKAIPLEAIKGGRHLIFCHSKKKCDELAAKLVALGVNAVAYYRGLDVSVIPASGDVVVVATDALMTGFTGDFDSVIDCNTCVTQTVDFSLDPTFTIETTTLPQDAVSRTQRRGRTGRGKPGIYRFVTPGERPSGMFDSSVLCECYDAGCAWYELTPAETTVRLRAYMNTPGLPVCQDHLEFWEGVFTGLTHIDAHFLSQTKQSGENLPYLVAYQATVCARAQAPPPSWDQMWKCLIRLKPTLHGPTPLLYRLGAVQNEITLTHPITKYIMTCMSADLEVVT
Chain of fMet-Leu-Phe receptor (P21462 whole entry): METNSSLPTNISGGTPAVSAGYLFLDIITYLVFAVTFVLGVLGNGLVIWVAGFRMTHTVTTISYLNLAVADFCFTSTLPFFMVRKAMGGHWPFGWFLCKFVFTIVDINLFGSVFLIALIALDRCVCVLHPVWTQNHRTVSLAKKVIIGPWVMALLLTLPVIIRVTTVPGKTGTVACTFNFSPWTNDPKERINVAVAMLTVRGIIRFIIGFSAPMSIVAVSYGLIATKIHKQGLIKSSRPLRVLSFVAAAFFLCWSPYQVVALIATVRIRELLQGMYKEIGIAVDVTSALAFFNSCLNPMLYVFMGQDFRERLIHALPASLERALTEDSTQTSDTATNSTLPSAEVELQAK

With `CN1C(=O)C(=CN2CCN(C(=O)c3ccco3)CC2)C(=O)N(C)C1=S` the EC50 (cells [1]) was > 29.9 µM (inactive), the IC50 (cells [2]) was > 29.9 µM (inactive) and the IC50 [3] was > 29.9 µM (inactive). The EC50 [4] was 4.85 µM (active).

For `Cn1ccc(C(=O)Nc2sc3c(c2C(N)=O)CCCCC3)n1`, the IC50 [5] was > 47.1 µM (inactive), the IC50 [6] was > 2.5 µM (active) and the IC50 (cells [7]) was > 67.5 µM (inactive). For the same molecule, the EC50 [8] was > 53 µM (inactive).

For `O=C(C1=C(O)C(=O)N(CCOCCO)C1c1cccs1)c1cccs1` (stereo unspecified), the Ki (fMet-Leu-Phe receptor) was 21.4 µM (inactive).

In the case of `Nc1c(C(=O)NCC2CCCO2)sc2nc3c(c(-c4ccco4)c12)CC/C3=C\c1ccco1` (stereo unspecified), the IC50 (Albumin) is reported as > 94.1 µM (inactive), the IC50 (NS3) is reported as 3.91 µM (active) and the IC50 [9] is reported as 1.22 µM (active).

For `COc1ccccc1CC(=O)NCCc1ccccc1`, the EC50 (cells [1]) was > 29.9 µM (inactive), the IC50 (cells [2]) was > 29.9 µM (inactive) and the IC50 [3] was 9 µM (active). The EC50 [4] was 3.18 µM (active).

For `CCN1CCN(Cc2ccc(NC(=O)c3ccc(C)c(NC(=O)c4cnc5cc(C(F)(F)F)ccc5c4O)c3)cc2C(F)(F)F)CC1`, the AC50 [10] was 5.11 µM (active), the AC50 [11] was 5.71 µM (active) and the AC50 [12] was 4.48 µM (active). For the same molecule, the AC50 [13] was 3.13 µM (active), the AC50 (HEK293) was 2.74 µM (active) and the AC50 [14] was 5.48 µM (active). The AC50 [15] was 6.23 µM (active) and the AC50 [16] was 4.86 µM (active).

In the case of `CC(O)(c1cccc(F)c1)c1nc(/C=C/c2ccccc2)cs1` (stereo unspecified), the IC50 [17] is reported as 25 µM (inactive) and the IC50 [18] is reported as > 69.5 µM (inactive).

For `CC1(Cc2ccc(Cl)c(Cl)c2)C(=O)Nc2ccc(S(=O)(=O)NC3CCCCC3)cc21` (stereo unspecified), the IC50 [17] was 8.03 µM (active) and the IC50 [18] was > 69.5 µM (inactive).

With `COc1cc(OC)cc(C(=O)N/N=C/c2ccc(OC)c(COc3ccc4ccccc4c3)c2)c1` the IC50 (Albumin) was > 94.1 µM (inactive).

For `C[C@H](CO)N1C[C@H](C)[C@H](CN(C)C(=O)NC2CCCCC2)Oc2cc(C#Cc3ccc(F)cc3)ccc2S1(=O)=O`, the AC50 [14] was 12.8 µM (active) and the AC50 (Paired box protein Pax-8) was 7.83 µM (active).
